# Several values for one entry are separate records, joined by “and”; a condition that tells them apart may be missing. Equal values may be shown once.
# Test system: C. difficile associated diarrhea
# Conditions: per protocol population with recurrent CDAD at enrollment; vancomycin or 6 g tolevamer; cited from earlier work
row,Compound,definitive recurrence rate
1,CN[C@H](CC(C)C)C(=O)N[C@H]1C(=O)N[C@@H](CC(N)=O)C(=O)N[C@H]2C(=O)N[C@H]3C(=O)N[C@H](C(=O)N[C@H](C(=O)O)c4cc(O)cc(O)c4-c4cc3ccc4O)[C@H](O)c3ccc(c(Cl)c3)Oc3cc2cc(c3O[C@@H]2O[C@H](CO)[C@@H](O)[C@H](O)[C@H]2O[C@H]2C[C@](C)(N)[C@H](O)[C@H](C)O2)Oc2ccc(cc2Cl)[C@H]1O [vancomycin],27%

# Same assay, conditions: per protocol population; 125 mg vancomycin QID or 6 g tolevamer; cited from earlier work
row,Compound,definitive recurrence rate confirmed by a positive toxin assay
1,CN[C@H](CC(C)C)C(=O)N[C@H]1C(=O)N[C@@H](CC(N)=O)C(=O)N[C@H]2C(=O)N[C@H]3C(=O)N[C@H](C(=O)N[C@H](C(=O)O)c4cc(O)cc(O)c4-c4cc3ccc4O)[C@H](O)c3ccc(c(Cl)c3)Oc3cc2cc(c3O[C@@H]2O[C@H](CO)[C@@H](O)[C@H](O)[C@H]2O[C@H]2C[C@](C)(N)[C@H](O)[C@H](C)O2)Oc2ccc(cc2Cl)[C@H]1O [vancomycin],19%

# Test system: C. difficile-associated diarrhea (CDAD)
# Conditions: oral metronidazole 500 mg TID; oral vancomycin 125 mg every 6 h; cited from earlier work
row,Compound,response rates
1,Cc1ncc([N+](=O)[O-])n1CCO [metronidazole],~90%
2,CN[C@H](CC(C)C)C(=O)N[C@H]1C(=O)N[C@@H](CC(N)=O)C(=O)N[C@H]2C(=O)N[C@H]3C(=O)N[C@H](C(=O)N[C@H](C(=O)O)c4cc(O)cc(O)c4-c4cc3ccc4O)[C@H](O)c3ccc(c(Cl)c3)Oc3cc2cc(c3O[C@@H]2O[C@H](CO)[C@@H](O)[C@H](O)[C@H]2O[C@H]2C[C@](C)(N)[C@H](O)[C@H](C)O2)Oc2ccc(cc2Cl)[C@H]1O [vancomycin],~90%

# Biological target: Clostridium difficile toxin A (Clostridioides difficile, UniProt P16154)
# Conditions: toxin A applied at 200 micrograms/ml; detected with PCG4 antibody and goat anti-mouse Alexa488
row,Compound,fluorescence (FL) signal
1,CC(=O)N[C@@H]1[C@@H](O)[C@H](O[C@@H]2O[C@H](CO)[C@H](O)[C@H](O[C@@H]3O[C@H](CO)[C@H](O)[C@H](O)[C@H]3O)[C@H]2O)[C@@H](CO)O[C@H]1O [Galb1-3Galb1-4GlcNAcb],172
2,"CC(=O)N[C@@H]1[C@@H](O[C@@H]2O[C@@H](C)[C@@H](O)[C@@H](O)[C@@H]2O)[C@H](O[C@@H]2O[C@H](CO)[C@H](O)[C@H](O)[C@H]2O)[C@@H](CO)O[C@H]1O [Lewis×, Galb1-4[Fuca1-3]GlcNAcb]",122 and 218
3,GalNAca1-3(Fuca1-2)Galb1-4(Fuca1-3)GlcNAcb-,327
4,GalNAca1-3(Fuca1-2)Galb1-4GlcNAcb-,188
5,Gala1-3(Fuca1-2)Galb1-4(Fuca1-3)GlcNAcb-,789
6,Gala1-3Galb1-4(Fuca1-3)GlcNAcb-,1814
7,Galb1-3(Fuca1-4)GlcNAcb1-3Galb1-4GlcNAcb-,29098
8,NeuAca2-3Galb1-3(Fuca1-4)GlcNAcb1-3Galb1-4(Fuca1-3)GlcNAcb-,14911
9,NeuAca2-3Galb1-3GlcNAcb1-3Galb1-4GlcNAcb-,4435

# — patent publication US7915235B2, “High affinity ligands bind to clostridium difficile toxin A” (priority 2006, dated 2011)
